Laboratory results reported in patent US20250090875A9, “IMMUNOSTIMULATORY COMPOUNDS AND CONJUGATES” (Seagen Inc., priority 2021, published 2025).

Experiments:
MC38 tumors = assay: MC38 colon tumor model in C57BL/6 mice; assay type: in vivo, mouse; details: ADC, carboxylic acid vs methyl ester payload, FIG. 12
Protocol: The activity of several conjugated TLR7/8 molecules in both methyl ester and carboxylic acid forms were also assessed in another colon tumor model, MC38. Results of this analysis are summarized in FIG. 12, which the top panel summarizing tumor volume and the bottom panel providing percent survival across 9 treatment groups. […] However, the increase in anti-tumor activity of the carboxylic acid version of the ADC was much more pronounced in this model for the S18a (methyl ester) or S18b (carboxylic acid) TLR7/8 agonist.
To assess if the small molecule and conjugated agonist are specific for the toll like 7 and/or 8 receptors, various small molecules and ADCs were tested on TLR7 receptor knockout animals. As TLR8 is normally nonfunctional in mice, in TLR7−/− mice there is a total loss of ability to respond to compounds that work through these receptors. To assess whether compounds are TLR7/8 specific, MC38 tumors were implanted into either wild type C57B1/6 mice or cognate TLR7−/− mice. When tumors reached ˜50 mm3 mice animals were treated q7dx3 with vehicle (PBS), 1 mg/kg of the free small molecule S18a, the isotype/non-targeted ADC with cmpd 9 or with an immune cell targeted version of the cmpd 9 IDC.

CT26 tumors = assay type: in vivo
From the text: This example covers in vivo assessments of anti-tumor activity of ADCs with TLR7/8 agonists. An in vivo syngeneic system was used to assess the ability of the ADCs having TLR ⅞ agonists as the payload to induce immune responses and drive an anti-tumor immune response using a subcutaneous, heterotopic mouse colon carcinoma model (a CT26 system). Female Balb/c mice were implanted with 1×10^5 CT26 cells sub-cutaneously in the flank on day 0. When mean tumor size of 100 mm^3 (measured using the formula: Volume (mm^3)=0.5*Length*Width^2 where length is the longer dimension) was reached, the mice were randomized into treatment groups of 6 mice per group. Animals were then treated intraperitoneally with the indicated treatment every 7 days, for 3 doses total. Stock concentrations of the ADCs were diluted to the appropriate concentration and injected into animals in 100 μL volumes. Tumor length and width and mouse weights were measured throughout the study and tumor volume was calculated using the formula above. Animals were followed until tumor volume reached 1000 mm^3, when animals were then euthanized.

primary human PBMCs = assay: Cytokine induction in primary human PBMCs by small molecule TLR7/8 agonists (Luminex); assay type: cell-based; details: free drug; for IFNα, IL1β, MIP1β, TNFα induction, C7 carboxylic acid vs parent C7 methyl ester: FIG. 3; for MIP1β and TNFα responses: FIG. 4, compared with Resiquimod or methyl ester counterpart
Protocol: This example covers dose dependent human immune cell activation by small molecule TLR7/8 agonists. Primary human PBMCs were isolated from peripheral whole blood from human donors and were subjected to treatment with increasing concentrations of the agonists diluted in PBS. Cell culture supernatants were harvested 24 h after treatment and analyzed for induction of cytokines via multiplex ELISAs (Luminex).
Several small molecule TLR7/8 agonists were assessed for their ability to activate human immune cells in a dose dependent manner. Primary human PBMCs were isolated from peripheral whole blood from human donors and were subjected to treatment with increasing concentrations of the agonists diluted in PBS. 24 h after treatment cell culture supernatants were harvested and analyzed for induction of cytokines via multiplex ELISAs (Luminex).

human immune cells = assay: Cytokine induction in human immune cells by TLR7/8 agonist-antibody conjugates (Luminex); assay type: cell-based; details: ADC with immune-targeting antibody, FIGS. 6, 7, 8
Protocol: Cells were stimulated with the various TLR7/8 agonist-antibody conjugates at different concentrations, and resulting supernatants were harvested and analyzed using a multiplex analyte kit (Luminex).
Immune cells were treated with 5 μg/mL of an immune-targeting antibody, TLR agonist compounds, and antibody conjugated with different TLR agonist compounds (to thereby form ADCs with average drug:antibody ratios of about 8). FIG. 6 summarizes MIP1β (left panel) and TNFα (right panel) responses generated by untreated immune cells, a TLR agonist coupled to a non-targeting antibody (‘Non-targeted’), and TLR agonist compounds conjugated with immune-targeted antibodies (‘targeted cmpd’ 1-7). […] Targeted compounds 2, 4, 5, and 7 correspond to C7 carboxymethylated imidazoquinoline compounds coupled to immunostimulatory antibodies by cleavable linkers. Targeted compounds 3 and 6 correspond to C7 carboxylated imidazoquinoline compounds coupled to immunostimulatory antibodies by cleavable linkers. FIG. 7 provides dose-dependent IL12p40 (left panel) and IL1β (right panel) responses generated with non-targeted (i.e., coupled to an isotype antibody) and immune targeting antibody conjugated compounds, with ‘cmpd 9’ corresponding to a C7 carboxylated imidazoquinoline compound and ‘cmpo10’ corresponding to its C7 carboxymethyl analogue. FIG. 8 provides dose-dependent interleukin 6 (IL6, left panel) and TNFα (right panel) responses with ADCs comprising immune cell targeting antibodies coupled to either C7 carboxylated (cmpd 3, 8, 9) or C7 carboxymethylated (cmpd 4, 7, 10) imidazoquinoline compounds.
In order to ascertain whether the difference in activity of the N1 vs. C4 linked conjugates seen in the Renca model was due to variable potency, a dose range experiment was performed. The N1 and C4 linked targeted (ADC) and non-targeted conjugates were administered in a wide dose range (0.001 to 10 μg/mL) to exogenously derived human immune cells. […] Supernatants were harvested and analyzed using a multiplex analyte kit (Luminex).

Renca tumors = assay: Renca kidney carcinoma model in Balb/c mice; assay type: in vivo, mouse; details: for loss of potency, C4-linked vs N1-linked conjugate: dose increase of C4-linked conjugate needed to match 2 mg/kg N1-linked conjugate
Protocol: The difference in anti-tumor activity of the S18a and S18b conjugates was also assessed in the Renca kidney model. In this model, mice bearing Renca tumors were treated q7dx3 when tumors reached ˜100 mm^3 as indicated, and followed for mean group tumor growth (FIG. 14, top) and survival (FIG. 14, bottom) over time.
This example covers cancer treatment with EphA2 targeted TLR agonists. […] Balb/c mice were implanted with Renca tumor cells and when cells reached 100 mm^3 they were treated Q7dx3 treatments with 2.4 mg/kg of the indicated IDC, either non targeting isotype or an EphA2 targeting mAb.

[1] = SEC analysis of ADC aggregation (high molecular weight species) in plasma; assay type: physicochemical; details: ADC incubated with human or mouse plasma, FIG. 9
Protocol: Method I: Size-exclusion chromatography (SEC) was performed with a Waters ACQUITY UPLC system and an Acquity UPLC Protein BEH SEC Column, (200 Å, 1.7 μm, 4.6×150 mm, PN: 186005225). The mobile phase used was 7.5% isopropanol in 92.5% aqueous (25 mM sodium phosphate, 350 mM NaCl, pH 6.8), v/v. Elution was performed isocratically at a flow rate of 0.4 mL/min at ambient temperature.
To determine if any of these differences in activity potentially resulted from increases in aggregation as a subsequent result of changes in charge, SEC analysis was performed. ADCs containing either S18a (methyl ester) or S18b (carboxylic acid) were incubated with both human or mouse plasma and assessed for the formation of high molecular weight species (HMW) over time.

plasma cytokines [2] = assay: Systemic cytokine response in CT26-tumor bearing mice; assay type: in vivo, mouse
Protocol: In addition to analyzing this response in non-tumor bearing animals simply on systemic immune activation, the C4/N1-linked TLR7/8 drug antibody conjugates were also administered to CT26-tumor bearing animals to determine how the linkage site affects cytokine response and anti-tumor response. The results are shown in FIG. 17, which provides MIP1b (top panel) and TNFα (bottom panel) responses generated with N1-(cmpd 9) and C4-(cmpd 11) linked compounds conjugated to targeting and non-targeting antibodies, as well as for untreated cells. […] This was true for targeted and non-targeted control conjugates.

plasma cytokines [3] = assay: Systemic plasma cytokine induction in non-tumor bearing Balb/c mice; assay type: in vivo, mouse
[4] = tumor/immune targeted mAb, 2 mg/kg every 7 days, 3 doses, FIG. 38

## CCCCc1nc2c(N)nc3cc(C(=O)O)ccc3c2n1Cc1ccc(CNC(=O)OCc2ccc(O[C@H]3O[C@H](CO)[C@@H](O)[C@H](O)[C@@H]3O)c(NC(=O)CCNC(=O)[C@H](CCCCNC(=O)CCOCCOCCOCCOCCOCCOCCOCCOCCOCCOCCOCCOC)NC(=O)CCN3C(=O)C=CC3=O)c2)cc1 [Compound 3, 4-amino-2-butyl-1-(4-(((((3-((S)-44-(3-(2,5-dioxo-2,5-dihydro-1H-pyrrol-1-yl)propanamido)-38,45-dioxo-2,5,8,11,14,17,20,23,26,29,32,35-dodecaoxa-39,46-diazanonatetracontan-49-amido)-4-(((2R,3S,4S,5S,6R)-3,4,5-trihydroxy-6-(hydroxymethyl)tetrahydro-2H-pyran-2-yl)oxy)benzyl)oxy)carbonyl)amino)methyl)benzyl)-1H-imidazo[4,5-c]quinoline-7-carboxylic acid]
MC38 tumors
  tumor growth delay and survival: slight increased survival advantage
CT26 tumors; targeted ADC, intraperitoneal, every 7 days, 3 doses
  tumor growth delay and survival: profound tumor growth delay

## CCCCc1nc2c(N)nc3cc(C(=O)O)ccc3c2n1Cc1ccc(CN)cc1 [S8b, 4-amino-1-(4-(aminomethyl)benzyl)-2-butyl-1H-imidazo[4,5-c]quinoline-7-carboxylic acid]
Primary human PBMCs
  IFNα, IL1β, MIP1β, TNFα induction, C7 carboxylic acid vs parent C7 methyl ester: markedly lower potency and activity than its corresponding parent methyl ester compound
  MIP1β and TNFα responses: lower activities than their methyl ester counterparts
Human immune cells
  potency at activating immune cells vs methyl ester analogues: just as, if not more potent at activating immune cells than their methyl ester analogues

## CCCCc1nc2c(N)nc3cc(C(=O)O)ccc3c2n1CCN [S11b]
Primary human PBMCs
  IFNα, IL1β, MIP1β, TNFα induction, C7 carboxylic acid vs parent C7 methyl ester: markedly lower potency and activity than its corresponding parent methyl ester compound
  MIP1β and TNFα responses: lower activities than their methyl ester counterparts
Human immune cells
  potency at activating immune cells vs methyl ester analogues: just as, if not more potent at activating immune cells than their methyl ester analogues

## CCCCc1nc2c(N)nc3cc(C(=O)O)ccc3c2n1Cc1ccc(CN(C)C)cc1 [S18b]
MC38 tumors
  tumor growth delay and survival: distinct tumor growth delay and overall survival benefit
Renca tumors; ADC, q7dx3 from ~100 mm^3, FIG. 14
  tumor growth and survival: very good tumor growth delay and superior overall survival advantage
Human immune cells
  potency at activating immune cells vs methyl ester analogues: just as, if not more potent at activating immune cells than their methyl ester analogues
[1]
  aggregation (formation of high molecular weight species over time): no significant difference in the amounts of aggregation

## CCCCc1nc2c(NC(=O)OCc3ccc(O[C@H]4O[C@H](CO)[C@@H](O)[C@H](O)[C@@H]4O)c(NC(=O)CCNC(=O)[C@H](CCCCNC(=O)CCOCCOCCOCCOCCOCCOCCOCCOCCOCCOCCOCCOC)NC(=O)CCN4C(=O)C=CC4=O)c3)nc3cc(C(=O)O)ccc3c2n1Cc1ccc(CN(C)C)cc1 [cmpd 11, 2-butyl-1-(4-((dimethylamino)methyl)benzyl)-4-((((3-((S)-44-(3-(2,5-dioxo-2,5-dihydro-1H-pyrrol-1-yl)propanamido)-38,45-dioxo-2,5,8,11,14,17,20,23,26,29,32,35-dodecaoxa-39,46-diazanonatetracontan-49-amido)-4-(((2R,3 S,4S,5 S,6R)-3,4,5-trihydroxy-6-(hydroxymethyl)tetrahydro-2H-pyran-2-yl)oxy)benzyl)oxy)carbonyl)amino)-1H-imidazo[4,5-c]quinoline-7-carboxylic acid]
CT26 tumors; EphA2 targeting mAb
  animals reaching complete tumor cures: 50%
CT26 tumors; EphA2 targeting mAb or isotype, FIGS. 35, 36
  anti-tumor activity and tumor growth delay: all animals benefiting from tumor growth delay
CT26 tumors; [4]
  animals fully cured: no cures
  median tumor volume (tumor growth delay): advantage with the TLR7/8 containing IDC vs the naked tumor/immune targeted mAb in terms of tumor growth delay
Renca tumors; EphA2 targeting mAb or isotype, Q7dx3, 2-2.4 mg/kg
  tumor growth: substantial tumor growth delayed noted for several of the animals
Renca tumors
  loss of potency, C4-linked vs N1-linked conjugate: ~4 ×
Renca tumors; listed as Compound 11
  loss of potency, C4-linked vs N1-linked conjugate: approximately 4 ×
Plasma cytokines [2]; targeted and non-targeted control conjugates, FIG. 17
  systemic activation (majority of cytokines), C4 vs N1 linkage: reduced systemic activation
Plasma cytokines [2]; targeted antibody conjugate
  TNFα and MIP1β, C4 vs N1 linkage: equivalent for TNFα but showed benefit for MIP1β
Plasma cytokines [3]; immune-targeted ADC, 2 mg/kg intraperitoneal
  IL6 and TNFα levels, C4 vs N1 linkage: no changes in IL6 or TNFα levels
Plasma cytokines [3]; immune-targeted ADC, 2 mg/kg intraperitoneal, plasma 3/6/24 h
  reduction of systemic cytokine induction (MCP1, IP10, MIP1a, MIP1b, RANTES), C4 vs N1 linkage: 4.8 -fold
Plasma cytokines [3]; non-targeting ADC, FIG. 16
  systemic cytokines (MIP1β, TNFα), C4 vs N1 linkage: greatly diminished systemic cytokines and non-specific uptake
